Reference: patent US20100267561A1, “HERBICIDAL PYRIDAZINONE DERIVATIVES” (priority 2007, published 2010)
Read-outs that look alike come from different tables or passages of the source.

Assays:
Experiment in all cases: Test B pre-/postemergence plant response
Type in all cases: in vivo
[1] = system: Italian ryegrass (Lolium multiflorum); conditions: for pest or weed control at 31 g/ha / pest or weed control at 62 g/ha: Lolium multiflorum, read-out: Plant response rating, Ryegrass, Italian; for pest or weed control at 31 g/ha: 31 g ai/ha; for pest or weed control at 62 g/ha: 62 g ai/ha, 100 complete control
Summary of the method: (§1)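 Seeds were sown and sprayed preemergence, while plants at 2 to 18 cm (1- to 4-leaf stage) got postemergence sprays. Compounds were formulated in a non-phytotoxic solvent mixture with surfactant. After 13 to 15 days in a greenhouse, injury was rated visually against untreated controls, 0 (no effect) to 100 (complete control).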

corn (Zea mays) = conditions: for Corn plant response rating (crop injury, 0 = no effect, 100 = complete kill) at 31 g/ha: 31 g ai/ha; for Corn plant response rating (crop injury, 0 = no effect, 100 = complete kill) at 62 g/ha: 62 g ai/ha, 100 complete control
Summary of the method: as §1

[2] = system: velvetleaf (Abutilon theophrasti); conditions: for pest or weed control at 31 g/ha / pest or weed control at 62 g/ha: Abutilon theophrasti, read-out: Plant response rating, Velvetleaf; for pest or weed control at 31 g/ha: 31 g ai/ha; for pest or weed control at 62 g/ha: 62 g ai/ha, 100 complete control
Summary of the method: as §1

[3] = system: woolly cupgrass (Eriochloa villosa); conditions: for pest or weed control at 31 g/ha: 31 g ai/ha; for pest or weed control at 62 g/ha: 62 g ai/ha, 100 complete control
Summary of the method: as §1

[4] = system: pigweed (Amaranthus retroflexus); conditions: for pest or weed control at 31 g/ha / pest or weed control at 62 g/ha: Amaranthus retroflexus, read-out: Plant response rating, Pigweed; for pest or weed control at 31 g/ha: 31 g ai/ha; for pest or weed control at 62 g/ha: 62 g ai/ha, 100 complete control
Summary of the method: as §1

[5] = system: eastern black (E.B.) nightshade (Solanum ptycanthum); conditions: Preemergence; for Nightshade, E. B. plant response rating: scale 0 to 100
Summary of the method: as §1

soybean (Glycine max) = conditions: for Soybean plant response rating: postemergence, 0-100 scale; for plant injury at 31 g/ha: 31 g ai/ha
Summary of the method: as §1

[6] = 8 g ai/ha, postemergence, 0-100 scale
[7] = 16 g ai/ha, postemergence, 0-100 scale
[8] = post-emergence, Postemergence, scale 0 to 100
[9] = post-emergence, Postemergence, scale 0 to 100, 0 no effect
[10] = pre-emergence, Preemergence, scale 0 to 100 (0 no effect, 100 complete control)
[11] = pre-emergence, Preemergence, 0 to 100 scale, 0 no effect
[12] = Preemergence, 8 g ai/ha, scale 0 to 100
[13] = Preemergence, 16 g ai/ha, scale 0 to 100

With `Cc1nn(C)c(=O)c(-n2nc(-c3ccc(C(F)(F)F)cc3)cc2C)c1O` [Compound 75, 5-hydroxy-2,6-dimethyl-4-[5-methyl-3-[4-(trifluoromethyl)phenyl]-1H-pyrazol-1-yl]-3(2H)-pyridazinone] the “Ryegrass, Italian plant response rating” value [1, 6] was 30, the “Ryegrass, Italian plant response rating” value [1, 7] was 50 and the pest or weed control at 31 g/ha [1, 8] was 95%. The pest or weed control at 62 g/ha [1, 9] was 98%, the pest or weed control at 31 g/ha [1, 10] was 98% and the pest or weed control at 62 g/ha [1, 11] was 98%. For the same compound, the “Ryegrass, Italian plant response rating” value [1, 12] was 0, the “Ryegrass, Italian plant response rating” value [1, 13] was 30 and the “Corn plant response rating” value (corn (Zea mays); [6]) was 0. The “Corn plant response rating” value (corn (Zea mays); [12]) was 0, the “Corn plant response rating” value (corn (Zea mays); [13]) was 0 and the Corn plant response rating (crop injury, 0 = no effect, 100 = complete kill) at 16 g/ha (corn (Zea mays); Zea mays, post-emergence, Postemergence, 16 g ai/ha, scale 0 to 100) was 50%. For the same compound, the Corn plant response rating (crop injury, 0 = no effect, 100 = complete kill) at 31 g/ha (corn (Zea mays); Zea mays, post-emergence, Postemergence, scale 0 to 100) was 90%, the Corn plant response rating (crop injury, 0 = no effect, 100 = complete kill) at 62 g/ha (corn (Zea mays); Zea mays, post-emergence, Postemergence, scale 0 to 100, 0 no effect) was 100% and the Corn plant response rating (crop injury, 0 = no effect, 100 = complete kill) at 31 g/ha (corn (Zea mays); Zea mays, pre-emergence, Preemergence, scale 0 to 100 (0 no effect, 100 complete control)) was 75%. For the same compound, the Corn plant response rating (crop injury, 0 = no effect, 100 = complete kill) at 62 g/ha (corn (Zea mays); Zea mays, pre-emergence, Preemergence, 0 to 100 scale, 0 no effect) was 95%, the “Velvetleaf plant response rating” value [2, 6] was 0 and the “Velvetleaf plant response rating” value [2, 7] was 0. The pest or weed control at 31 g/ha [2, 8] was 0%, the pest or weed control at 62 g/ha [2, 9] was 0% and the pest or weed control at 31 g/ha [2, 10] was 0%. The pest or weed control at 62 g/ha [2, 11] was 0%, the “Velvetleaf plant response rating” value [2, 12] was 0 and the “Velvetleaf plant response rating” value [2, 13] was 0. For the same compound, the “Cupgrass, Woolly plant response rating” value [3, 6] was 20, the pest or weed control at 16 g/ha ([3]; Eriochloa villosa, post-emergence, Postemergence, 16 g ai/ha, scale 0 to 100, read-out: Plant response rating, Cupgrass, Woolly) was 65% and the pest or weed control at 31 g/ha ([3]; Eriochloa villosa, post-emergence, Postemergence, scale 0 to 100, read-out: Plant response rating, Cupgrass, Woolly) was 65%. It also gave a pest or weed control at 62 g/ha ([3]; Eriochloa villosa, post-emergence, Postemergence, scale 0 to 100, 0 no effect, read-out: Plant response rating, Cupgrass, Woolly) of 75%, a pest or weed control at 31 g/ha ([3]; Eriochloa villosa, pre-emergence, Preemergence, scale 0 to 100 (0 no effect, 100 complete control), read-out: Plant response rating, Cupgrass, Woolly) of 65% and a pest or weed control at 62 g/ha ([3]; Eriochloa villosa, pre-emergence, Preemergence, 0 to 100 scale, 0 no effect, read-out: Plant response rating, Cupgrass, Woolly) of 75%. For the same compound, the “Cupgrass, Woolly plant response rating” value [3, 12] was 0, the “Cupgrass, Woolly plant response rating” value [3, 13] was 0 and the “Pigweed plant response rating” value [4, 6] was 0. The “Pigweed plant response rating” value [4, 7] was 0, the pest or weed control at 31 g/ha [4, 8] was 0% and the pest or weed control at 62 g/ha [4, 9] was 0%. For the same compound, the pest or weed control at 31 g/ha [4, 10] was 0%, the pest or weed control at 62 g/ha [4, 11] was 0% and the “Pigweed plant response rating” value [4, 12] was 0. For the same compound, the “Pigweed plant response rating” value [4, 13] was 0, the “Nightshade, E. B. plant response rating” value ([5]; 8 g ai/ha) was 0 and the “Nightshade, E. B. plant response rating” value ([5]; 16 g ai/ha) was 0. The pest or weed control at 31 g/ha ([5]; Solanum, pre-emergence, 31 g ai/ha, scale 0 to 100 (0 no effect, 100 complete control), read-out: Plant response rating, Nightshade, E. B.) was 0%, the pest or weed control at 62 g/ha ([5]; Solanum, pre-emergence, 62 g ai/ha, 0 to 100 scale, 0 no effect, 100 complete control, read-out: Plant response rating, Nightshade, E. B.) was 0% and the “Soybean plant response rating” value (soybean (Glycine max); 8 g ai/ha) was 0. The “Soybean plant response rating” value (soybean (Glycine max); 16 g ai/ha) was 0, the plant injury at 31 g/ha (soybean (Glycine max); Glycine max, post-emergence, Postemergence, scale 0 to 100, read-out: Plant response rating, Soybean) was 0% and the plant injury at 62 g/ha (soybean (Glycine max); Glycine max, post-emergence, Postemergence, 62 g ai/ha, scale 0 to 100, 0 no effect, 100 complete control, read-out: Plant response rating, Soybean) was 0%. For the same compound, the plant injury at 31 g/ha (soybean (Glycine max); Glycine max, pre-emergence, Preemergence, scale 0 to 100 (0 no effect, 100 complete control), read-out: Plant response rating, Soybean) was 0%.
